Data reported in patent US9539218B2, “Prevention and treatment of thromboembolic disorders” (BAYER INTELLECTUAL PROPERTY GMBH, priority 2005, dated 2017).
Read-outs that look alike come from different tables or passages of the source.

Assays:
[1] = at steady state in humans, healthy male subjects, multiple dose escalation; cited from earlier work
[2] = test system: patients undergoing elective primary total hip replacement; conditions: for Primary efficacy, composite endpoint (DVT, PE, death) incidence rate / Primary efficacy, composite endpoint, n of patients with event: 7-9 days
Description: This was a dose guiding study for the direct factor Xa inhibitor (I). Objective of the study was the assessment of safety, tolerability, and efficacy of (I) at different oral doses (bid and od) compared with subcutaneously administered enoxaparin 40 mg in the prevention of venous thromboembolism.
642 patients were enrolled in this study and the treatment duration was 7 to 9 days.
The main inclusion criteria for the study were: men ≧18 years of age and postmenopausal women undergoing elective primary total hip replacement.
This was a prospective, randomized, open-label, active comparator controlled, multi-center and multi-national trial designed as a proof-of-principle dose-escalating study in patients undergoing elective primary total hip replacement.
(I) was administered orally as rapid release tablets.
The criteria for evaluation were: • a) The primary efficacy endpoint was a composite endpoint of • Any deep vein thrombosis (DVT) (proximal and/or distal). • Non-fatal pulmonary embolism (PE). • Death from all causes. • The primary endpoint was evaluated 5-9 days after surgery.

[3] = (I) 2.5 mg bid oral, PP population N = 63
[4] = (I) 5 mg bid oral, PP population N = 63
[5] = (I) 10 mg bid oral, PP population N = 55
[6] = (I) 20 mg bid oral, PP population N = 59
[7] = (I) 30 mg bid oral, PP population N = 46
[8] = (I) 30 mg od oral, PP population N = 73

## O=C(NC[C@H]1CN(c2ccc(N3CCOCC3=O)cc2)C(=O)O1)c1ccc(Cl)s1 [(I), 5-Chloro-N-({(5S)-2-oxo-3-[4-(3-oxo-4-morpholinyl)-phenyl]-1,3-oxazolidin-5-yl}-methyl)-2-thiophenecarboxamide]
[1]
  plasma concentration half life: 4 to 6 h
[2]; 30 mg (I) once daily for 7 to 9 days, 73 patients undergoing THR surgery
  DVT rate: 12.3%
[2]; 7-9-day treatment, 2.5 to 30 mg bid, adults undergoing elective hip replacement, compared with enoxaparin
  Prevention of venous thromboembolism (VTE): prevented venous thromboembolism (VTE)
[2]; [3]
  Primary efficacy, composite endpoint (DVT, PE, death) incidence rate: 22.2%
  Primary efficacy, composite endpoint, n of patients with event: 14
[2]; [4]
  Primary efficacy, composite endpoint (DVT, PE, death) incidence rate: 23.8%
  Primary efficacy, composite endpoint, n of patients with event: 15
[2]; [5]
  Primary efficacy, composite endpoint (DVT, PE, death) incidence rate: 20.0%
  Primary efficacy, composite endpoint, n of patients with event: 11
[2]; [6]
  Primary efficacy, composite endpoint (DVT, PE, death) incidence rate: 10.2%
  Primary efficacy, composite endpoint, n of patients with event: 6
[2]; [7]
  Primary efficacy, composite endpoint (DVT, PE, death) incidence rate: 17.4%
  Primary efficacy, composite endpoint, n of patients with event: 8
[2]; [8]
  Primary efficacy, composite endpoint (DVT, PE, death) incidence rate: 15.1%
  Primary efficacy, composite endpoint, n of patients with event: 11
